Here are results for 26 compounds from patent US6699854B2, “Anti-cancer compounds” (Cyclacel Limited, priority 2000, dated 2004).

One assay relates to A549 cells. The assay is described as follows: Mitotic index HitKit (Cellomix). The conditions noted are these: at a concentration of 22 nM, toxicity above this concentration. Type of assay: cell-based, human. The source says: The effect of compound 28 on the mitotic index was studied using mitotic index HitKit (Cellomix). Vinblastine was used as control in the experiments.
Above this concentration a decrease in the number of mitotic cells is observed which correlates with a decrease in the total number of cells.

The target in the next assay is T1, CDK2/cyclin E (Homo sapiens, UniProt P24941).
T1 construct: His; made in house; host or cells: Sf9 insect cells (baculovirus)
In words: CDK2/cyclin E kinase assay (GST-Rb phosphorylation).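 Note: enzyme source: His-tagged CDK2/cyclin E co-expressed in Sf9 insect cells via baculovirus, then purified by metal-chelate chromatography.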 Type of assay: biochemical. Conditions: Table 2, further results for CDK2/cyclin E inhibition; read-out: CDK2/cyclin E.

The next assay concerns A549. In words: 72-h MTT cytotoxicity assay, A549. Conditions: Homo sapiens, Table 4, additional data for cytotoxicity assay using the A549 cell line; read-out: A549. In kind it is cell-based, human. The method, then:
Selected compounds from the above examples were subjected to a standard cellular proliferation assay using a range of different human tumour cell lines. Standard 72-h MTT (thiazolyl blue; 3-{4,5-dimethylthiazol-2-yl}-2,5-diphenyltetrazolium bromide) assays were performed (Haselsberger, K.; Peterson, D. C.; Thomas, D. G.; Darling, J. L. Anti Cancer Drugs 1996, 7, 331-8; Loveland, B. E.; Johns, T. G.; Mackay, I. R.; Vaillant, F.; Wang, Z. X.; Hertzog, P. J. Biochemistry International 1992, 27, 501-10). Human tumour cell lines were obtained from the ATCC (American Type Culture Collection, 10801 University Boulevard, Manessas, Va. 20110-2209, USA).
(In general: Formazan colour is commonly taken as a measure of viable cells.)

`CC[C@]1(O)C[C@@H]2CN(CCc3c([nH]c4ccccc34)[C@@](C(=O)OC)(c3cc4c(cc3OC)N(C)[C@H]3[C@@](O)(C(=O)OC)[C@H](OC(C)=O)[C@]5(CC)C=CCN6CC[C@]43[C@@H]65)C2)C1` [Vinblastine, reference compound]: the “maximum percentage of mitotic cells” value in the assay with A549 cells is recorded as 31%.

In the case of `C=CCNc1nc(C)c(-c2ccnc(Nc3ccc(F)cc3)n2)s1` [Compound 82, {4-(2-Allylamino-4-methyl-thiazol-5-yl)-pyrimidin-2-yl}-(4-fluoro-phenyl)-amine], the IC50 at CDK2/cyclin E amounted to 200 nM; in the assay on A549, 1100 ± 300 nM.

Take `CNc1nc(C)c(-c2ccnc(Nc3ccc(I)cc3)n2)s1` [Compound 72, (4-Iodo-phenyl)-{4-(4-methyl-2-methylamino-thiazol-5-yl)-pyrimidin-2-yl}-amine]: the values for the IC50 on CDK2/cyclin E and in the assay on A549 were 900 nM and 800 ± 500 nM, respectively.

For the compound `COc1cccc(Nc2nccc(-c3sc(C)nc3C)n2)c1` [Compound 38, {4-(2,4-Dimethyl-thiazol-5-yl)-pyrimidin-2-yl}-(3-methoxy-phenyl)-amine], the IC50 at CDK2/cyclin E stood at 400 ± 300 nM; in the assay with A549 it was 4500 ± 1600 nM.

In the case of `COc1ccccc1Nc1nccc(-c2sc(C)nc2C)n1` [Compound 37, {4-(2,4-Dimethyl-thiazol-5-yl)-pyrimidin-2-yl}-(2-methoxy-phenyl)-amine], the IC50 at CDK2/cyclin E came to 6400 ± 100 nM; with A549, 25000 nM.

As for `CNc1nc(C)c(-c2ccnc(Nc3cccc(C(F)(F)F)c3)n2)s1` [Compound 90, {4-(4-Methyl-2-methylamino-thiazol-5-yl)-pyrimidin-2-yl}-(3-trifluoromethyl-phenyl)-amine], the IC50 on CDK2/cyclin E came to 200 nM; in the assay on A549, 1800 ± 800 nM.

Regarding `COCCOC(=O)c1cc(Nc2nccc(-c3sc(C)nc3C)n2)ccc1F` [Compound 98, 5-{4-(2,4-Dimethyl-thiazol-5-yl)-pyrimidin-2-ylamino}-2-fluoro-benzoic acid 2-methoxy-ethyl ester], the IC50 on CDK2/cyclin E stood at 1100 nM; in the assay with A549, 2800 ± 2100 nM.

On to `CNc1nc(C)c(-c2ccnc(Nc3ccc(Br)cc3)n2)s1` [Compound 86, (4-Bromo-phenyl)-{4-(4-methyl-2-methylamino-thiazol-5-yl)-pyrimidin-2-yl}-amine], for which the values for the IC50 at CDK2/cyclin E and with A549 were 130 nM and 8000 ± 6000 nM, respectively.

Turning to `CNc1nc(C)c(-c2ccnc(Nc3ccc(Cl)c(C(F)(F)F)c3)n2)s1` [Compound 107, (4-Chloro-3-trifluoromethyl-phenyl)-{4-(4-methyl-2-methylamino-thiazol-5-yl)-pyrimidin-2-yl}-amine], the values for the IC50 at CDK2/cyclin E and with A549 were 3000 nM and 700 ± 200 nM, respectively.

Regarding `Cc1nc(C)c(-c2ccnc(Nc3ccc(C(=O)O)cc3)n2)s1` [Compound 53, 4-{4-(2,4-Dimethyl-thiazol-5-yl)-pyrimidin-2-ylamino}-benzoic acid], the IC50 on CDK2/cyclin E stood at 700 ± 400 nM; in the assay with A549, 12000 ± 5000 nM.

In the case of `Cc1nc(C)c(-c2ccnc(Nc3ccc(C#N)cc3)n2)s1` [Compound 48, 4-{4-(2,4-Dimethyl-thiazol-5-yl)-pyrimidin-2-ylamino}-benzonitrile], the figures for the IC50 on CDK2/cyclin E and with A549 were 30 nM and 6700 ± 1100 nM, respectively.

Consider `CNc1nc(C)c(-c2ccnc(Nc3cc(F)cc(F)c3)n2)s1` [Compound 106, (3,5-Difluoro-phenyl)-{4-(4-methyl-2-methylamino-thiazol-5-yl)-pyrimidin-2-yl}-amine], for which the IC50 stood at 10000 nM on CDK2/cyclin E and 2800 ± 500 nM with A549.

As to `CNc1nc(C)c(-c2ccnc(Nc3ccc(O)c([N+](=O)[O-])c3)n2)s1` [Compound 73, 4-{4-(4-Methyl-2-methylamino-thiazol-5-yl)-pyrimidin-2-ylamino}-2-nitro-phenol], the IC50 at CDK2/cyclin E came out at 200 nM; with A549, 9000 ± 4000 nM.

On to `CCOC(=O)c1ccc(Nc2nccc(-c3sc(NC)nc3C)n2)cc1Cl` [Compound 74, 2-Chloro-4-{4-(4-methyl-2-methylamino-thiazol-5-yl)-pyrimidin-2-ylamino}-benzoic acid ethyl ester], for which the IC50 on CDK2/cyclin E turned out to be 100 nM; in the assay on A549 it was 18000 ± 4000 nM.

As to `Cc1nc(-c2ccccc2)sc1-c1ccnc(Nc2ccc(O)cc2)n1` [Compound 60, 4-{4-(4-Methyl-2-phenyl-thiazol-5-yl)-pyrimidin-2-ylamino}-phenol], the IC50 at CDK2/cyclin E was 4000 nM; in the assay with A549 it was 2100 ± 300 nM.

`CNc1nc(C)c(-c2ccnc(Nc3ccc(Cl)cc3)n2)s1` [Compound 87, (4-Chloro-phenyl)-{4-(4-methyl-2-methylamino-thiazol-5-yl)-pyrimidin-2-yl}-amine]: the values for the IC50 on CDK2/cyclin E and in the assay with A549 were 80 nM and 1700 ± 100 nM, respectively.

Turning to `CNc1nc(C)c(-c2ccnc(Nc3cccc(Br)c3)n2)s1` [Compound 83, (3-Bromo-phenyl)-{4-(4-methyl-2-methylamino-thiazol-5-yl)-pyrimidin-2-yl}-amine], the IC50 on CDK2/cyclin E is 200 nM; in the assay with A549, 600 ± 300 nM.

On to `Cc1nc(C)c(-c2ccnc(Nc3ccc(I)cc3F)n2)s1` [Compound 94, {4-(2,4-Dimethyl-thiazol-5-yl)-pyrimidin-2-yl}-(2-fluoro-4-iodo-phenyl)-amine], for which the IC50 on CDK2/cyclin E is 600 nM; in the assay on A549, 500 ± 600 nM.

With `Cc1nc(C)c(-c2ccnc(Nc3ccc(C)c(Cl)c3)n2)s1` [Compound 51, (3-Chloro-4-methyl-phenyl)-{4-(2,4-dimethyl-thiazol-5-yl)-pyrimidin-2-yl}-amine], the IC50 on CDK2/cyclin E is 750 nM; in the assay with A549 it was 300 ± 300 nM.

Regarding `Cc1nc(C)c(-c2ccnc(Nc3cccc(Br)c3)n2)s1` [Compound 30, (3-Bromo-phenyl)-{4-(2,4-dimethyl-thiazol-5-yl)-pyrimidin-2-yl}-amine], the IC50 on CDK2/cyclin E is 940 ± 490 nM; in the assay on A549, 6400 ± 50 nM.

As to `Cc1nc(C)c(-c2ccnc(Nc3ccc(F)cc3F)n2)s1` [Compound 22, (2,4-Difluoro-phenyl)-{4-(2,4-dimethyl-thiazol-5-yl)-pyrimidin-2-yl}-amine], the IC50 came out at 20 nM at CDK2/cyclin E and 20000 ± 1000 nM with A549.

`COc1ccc(Nc2nccc(-c3sc(C)nc3C)n2)cc1Cl` [Compound 52, (3-Chloro-4-methoxy-phenyl)-{4-(2,4-dimethyl-thiazol-5-yl)-pyrimidin-2-yl}-amine]: the IC50 at CDK2/cyclin E amounted to 60 nM; in the assay on A549, 800 ± 300 nM.

Regarding `Cc1nc(C)c(-c2ccnc(Nc3cccc(I)c3)n2)s1` [Compound 33, {4-(2,4-Dimethyl-thiazol-5-yl)-pyrimidin-2-yl}-(3-iodo-phenyl)-amine], the IC50 was 200 nM at CDK2/cyclin E and 61000 ± 55000 nM with A549.

`COc1ccc(Nc2nccc(-c3sc(C)nc3C)n2)cc1` [Compound 39, {4-(2,4-Dimethyl-thiazol-5-yl)-pyrimidin-2-yl}-(4-methoxy-phenyl)-amine]: the figures for the IC50 on CDK2/cyclin E and with A549 were 220 ± 70 nM and 300 nM, respectively.

In the case of `CNc1nc(C)c(-c2ccnc(Nc3cccc(OC)c3)n2)s1` [Compound 88, (3-Methoxy-phenyl)-{4-(4-methyl-2-methylamino-thiazol-5-yl)-pyrimidin-2-yl}-amine], the IC50 on CDK2/cyclin E was 200 nM; in the assay with A549, 400 ± 100 nM.

`Cc1nc(C)c(-c2ccnc(Nc3ccc(O)c([N+](=O)[O-])c3)n2)s1` [Compound 45, 4-{4-(2,4-Dimethyl-thiazol-5-yl)-pyrimidin-2-ylamino}-2-nitro-phenol]: the IC50 is 210 ± 160 nM at CDK2/cyclin E and 3300 ± 500 nM in the assay on A549.
